# Experimental data: patent US11266663B2, “Treatment of neuropsychiatric disorders with neurosteroids and analogues thereof” (THE BOARD OF TRUSTEES OF THE UNIVERSITY OF ILLINOIS, priority 2017, dated 2022)
# Where “and” joins values, the source holds several entries; their conditions need not be identical. Equal entries are not always repeated. Entries after “also recorded” stand apart in the source; their conditions may differ.
# Columns and labels:
# [1] = system: early and late adolescent SI mice; test: Resident-intruder test, aggressive behavior of socially isolated (SI) mice; assay type: in vivo, Swiss-Webster mice; settings: for reduction in the number of attacks vs. basal value / EC50 dose, decrease of aggression: 60 min before test; for “Non-responders” Early SI mice (%) / “Non-responders” Late SI mice (%): decrease of aggression <=30% vs basal; for EC50 dose, decrease of aggression: i.p.
# Excerpt: Male Swiss-Webster mice (Harlan Breeders) (18-30 g body weight), maintained under a 12-h dark/light cycle with food and water ad libitum were used for all experiments. Mice were housed individually in a cage of dimensions 24 cm×17 cm×12 cm. For these experiments, two mice experimental groups were used for the study of drug effect in different age conditions. The first group was isolated at 21 days (“early adolescent SI mice,” PND 21), while the second group at 45 days (“late adolescent SI mice,” PND 45). The animals were exposed to behavioral testing after 6 weeks of isolation. The vivarium temperature was kept at 24° C. and the humidity near 65%.
# […] All the drugs were dissolved in saline solution containing 0.5% Tween-80 (Sigma Aldrich, St. Louis, Mo., United States), and were injected intraperitoneally (i.p.), 60 min before behavioral tests.
# To test aggression, a male intruder mouse of the same strain as the resident mouse, was placed in a resident home cage (24 cm×17 cm×12 cm) and resident-intruder interactions were videotaped for 10 min. Aggressive behavior of SI mice was characterized by an initial pattern of exploratory activity around the intruder, followed by rearing and tail rattle, accompanied within a few seconds by wrestling and/or a violent biting attacks. The total number of wrestling and attacks during the 10 min observation period was measured as previously described (Pinna et al., 2003, 2005), 60 min after drug administration. For every drug studied, SI mice were first exposed to three behavioral sessions, and then the average of basal aggression level for every single SI mouse was calculated; 2 days later, aggression levels following treatment were tested. Treated animals showing a reduction of the number of attacks less than 30% vs. the respective basal control values were considered as “low- to non-responders.”
# Results are presented as means±SEMs unless otherwise indicated. Student's t-test, one-way ANOVA and two-way ANOVA repeated measures followed by Bonferroni post hoc test were performed to analyze experimental data; significance was set at p<0.05. EC50 values were calculated from dose-response curves analyzed by the “quantal dose-response: probits test” using the computer program of Tallarida and Murray equipped with a statistical package (Tallarida and Murray, 1987). Statistical comparisons among the different ECsos were performed with the “cohort package software.” (available at cohort.com).
# [2] = system: early and late adolescent SI mice; test: Locomotor activity test; assay type: in vivo, Swiss-Webster mice; settings: all doses tested, i.p., 60 min before test, 10 min recording
# Protocol: BR351 (1-5 mg/kg) and BR297 (0.3125-2.5 mg/kg) were obtained from NeuroRhine Consortium (Strasbourgh, France). All the drugs were dissolved in saline solution containing 0.5% Tween-80 (Sigma Aldrich, St. Louis, Mo., United States), and were injected intraperitoneally (i.p.), 60 min before behavioral tests.
# A computerized AccuScan 12 Animal Activity Monitoring System (Columbus Instruments, Columbus, Ohio, United States) assisted by VERSAMAX software (AccuScan Instruments, Columbus, Ohio, United States) was used to quantify locomotor activity (Pinna et al., 1997, 2006a). Each activity cage was made of a 20 cm×20 cm×20 cm Perspex box surrounded by horizontal and vertical infrared sensor beams. Horizontal sensors' beam interruptions were taken as a measure of horizontal activity.
# [3] = system: early and late adolescent SI mice; settings: i.p., previously established in Pinna and Rasmusson, 2014; cited from earlier work
# [4] = system: post-partum depression patients; settings: two-day course of intravenous infusion; cited from earlier work
# [5] = early SI mice, single dose, dose not stated (FIG. 5 legend)
# [6] = late SI mice, single dose, dose not stated (FIG. 5 legend)
# [7] = early SI mice, single dose 2.5 mg/kg
# [8] = early adolescent SI mice (PND 21)
# [9] = late SI mice, single dose 2.5 mg/kg (given in mg)
# [10] = late adolescent SI mice (PND 45)
smiles,measurement,setting,value
"CNCC[C@H](Oc1ccc(C(F)(F)F)cc1)c1ccccc1 [S-FLX, S-fluoxetine, reference compound]",duration of anti-aggressive effect (time until aggression rebounded to basal values),"[1]; early SI mice, single dose 0.375 mg/kg",1 days
same,duration of anti-aggressive effect (time until aggression rebounded to basal values),"[1]; early SI mice, single dose 0.75 mg/kg",3 days
same,duration of anti-aggressive effect (time until aggression rebounded to basal values),[1]; [5],3 days
same,reduction in the number of attacks vs. basal value,"[1]; late SI mice (PND 45), 0.75 mg/kg i.p.",−52%
same,duration of anti-aggressive effect (time until aggression rebounded to basal values),"[1]; late SI mice, single dose 0.375 mg/kg",1 days
same,duration of anti-aggressive effect (time until aggression rebounded to basal values),"[1]; late SI mice, single dose 0.75 mg/kg",3 days
same,duration of anti-aggressive effect (time until aggression rebounded to basal values),[1]; [6],3 days
same,effect on locomotor (exploratory) activity,[2],did not reduce exploratory activity; also recorded: failed to alter locomotion patterns
C=CCO[C@@H]1CC[C@]2(C)C3CC[C@@]4(C)C(CC[C@@H]4C(C)=O)C3CC[C@H]2C1 (stereo partly shown) [BR351],"difference of anti-aggressive effect, late compared with early SI mice","[1]; 5 mg/kg i.p., trend, p=0.0801",+179%
same,reduction in the number of attacks vs. basal value,"[1]; early SI mice (PND 21), 5 mg/kg i.p.",−56%
same,“Non-responders” Early SI mice (%),"[1]; early SI mice, single dose 1 mg/kg (given in mg)",50.0%
same,“Non-responders” Early SI mice (%),"[1]; early SI mice, single dose 2.5 mg/kg (given in mg)",20.0%
same,“Non-responders” Early SI mice (%),"[1]; early SI mice, single dose 5 mg/kg (given in mg), 5 mg/kg",13.33% and 13.3%
same,duration of anti-aggressive effect (time until aggression rebounded to basal values),"[1]; early SI mice, single dose 1 mg/kg",rapidly extinguished
same,duration of anti-aggressive effect (time until aggression rebounded to basal values),[1]; [7],5 days
same,duration of anti-aggressive effect (time until aggression rebounded to basal values),"[1]; early SI mice, single dose 5 mg/kg",3 days
same,"EC50 dose, decrease of aggression",[1]; [8],4.5 mg/kg
same,reduction in the number of attacks vs. basal value,"[1]; late SI mice (PND 45), 5 mg/kg i.p.",−80%
same,“Non-responders” Late SI mice (%),"[1]; late SI mice, single dose 1 mg/kg (given in mg)",54.6%
same,“Non-responders” Late SI mice (%),[1]; [9],40.0%
same,“Non-responders” Late SI mice (%),"[1]; late SI mice, single dose 5 mg/kg (given in mg), 5 mg/kg",8.33% and 8.3%
same,duration of anti-aggressive effect (time until aggression rebounded to basal values),"[1]; late SI mice, single dose 1 mg/kg",1 days
same,duration of anti-aggressive effect (time until aggression rebounded to basal values),"[1]; late SI mice, single dose 2.5 mg/kg",5 days
same,duration of anti-aggressive effect (time until aggression rebounded to basal values),"[1]; late SI mice, single dose 5 mg/kg",5 days
same,"EC50 dose, decrease of aggression",[1]; [10],3.75 mg/kg
same,effect on locomotor (exploratory) activity,[2],failed to alter locomotion patterns
"CCCCCCCCCCCCCCCC(=O)NCCO [PEA, N-palmitoylethanolamine]",effect on locomotor (exploratory) activity,[2],not altered
C=CCO[C@H]1CC[C@]2(C)C3CC[C@@]4(C)C(CC[C@@H]4C(C)=O)C3CC[C@H]2C1 (stereo partly shown) [BR297],"difference of anti-aggressive effect, late compared with early SI mice","[1]; 2.5 mg/kg i.p., trend, p=0.108",+235%
same,reduction in the number of attacks vs. basal value,"[1]; early SI mice (PND 21), 0.3125 mg/kg i.p.",−59%
same,reduction in the number of attacks vs. basal value,"[1]; early SI mice (PND 21), 0.625 mg/kg i.p.",−61%
same,reduction in the number of attacks vs. basal value,"[1]; early SI mice (PND 21), 2.5 mg/kg i.p.",−70%
same,“Non-responders” Early SI mice (%),"[1]; early SI mice, single dose 0.3125 mg/kg (given in mg)",30.0%
same,“Non-responders” Early SI mice (%),"[1]; early SI mice, single dose 0.625 mg/kg (given in mg)",21.4%
same,“Non-responders” Early SI mice (%),"[1]; early SI mice, single dose 2.5 mg/kg (given in mg), 2.5 mg/kg",6.25% and 6.3%
same,duration of anti-aggressive effect (time until aggression rebounded to basal values),"[1]; early SI mice, single dose 0.3125 mg/kg",3 days
same,duration of anti-aggressive effect (time until aggression rebounded to basal values),"[1]; early SI mice, single dose 0.625 mg/kg",7 days
same,duration of anti-aggressive effect (time until aggression rebounded to basal values),[1]; [7],7 days
same,duration of anti-aggressive effect (time until aggression rebounded to basal values),[1]; [5],7 days
same,"EC50 dose, decrease of aggression",[1]; [8],0.25 mg/kg
same,reduction in the number of attacks vs. basal value,"[1]; late SI mice (PND 45), 0.3125 mg/kg i.p.",−60%
same,reduction in the number of attacks vs. basal value,"[1]; late SI mice (PND 45), 0.625 mg/kg i.p.",−63%
same,reduction in the number of attacks vs. basal value,"[1]; late SI mice (PND 45), 2.5 mg/kg i.p.",−91%
same,“Non-responders” Late SI mice (%),"[1]; late SI mice, single dose 0.3125 mg/kg (given in mg)",18.2%
same,“Non-responders” Late SI mice (%),"[1]; late SI mice, single dose 0.625 mg/kg (given in mg)",18.2%
same,“Non-responders” Late SI mice (%),[1]; [9],0%
same,duration of anti-aggressive effect (time until aggression rebounded to basal values),"[1]; late SI mice, single dose 0.3125 mg/kg",3 days
same,duration of anti-aggressive effect (time until aggression rebounded to basal values),"[1]; late SI mice, single dose 0.625 mg/kg",9 days
same,duration of anti-aggressive effect (time until aggression rebounded to basal values),[1]; [6],9 days
same,"EC50 dose, decrease of aggression",[1]; [10],0.25 mg/kg
same,effect on locomotor (exploratory) activity,[2],failed to alter locomotion patterns
"CC(=O)[C@H]1CC[C@H]2[C@@H]3CC[C@H]4C[C@](C)(O)CC[C@]4(C)[C@H]3CC[C@]12C [GNX, ganaxolone, reference compound]","difference of anti-aggressive effect, late compared with early SI mice",[1]; 10 mg/kg i.p.,+197%
same,reduction in the number of attacks vs. basal value,"[1]; early SI mice (PND 21), 10 mg/kg i.p.",−72%
same,“Non-responders” Early SI mice (%),"[1]; early SI mice, single dose 10 mg/kg (given in mg), 10 mg/kg",25%
same,reduction in the number of attacks vs. basal value,"[1]; late SI mice (PND 45), 10 mg/kg i.p.",−46%
same,“Non-responders” Late SI mice (%),"[1]; late SI mice, single dose 10 mg/kg (given in mg), 10 mg/kg",15.38% and 15.4%
same,duration of anti-aggressive effect (time until aggression rebounded to basal values),"[1]; late SI mice, single dose 10 mg/kg (EC50 dose)",5 days
same,effect on locomotor (exploratory) activity,[2],failed to alter locomotion patterns
same,EC50 dose,[3],10 mg/kg
"CC(=O)C1CC[C@H]2[C@@H]3CCC4C[C@H](O)CC[C@]4(C)[C@H]3CC[C@]12C (stereo partly shown) [Allo, allopregnanolone]",duration of symptom improvement,[4],30 days
same,"remission of post-partum depression, patients",[4],70%
same,time to symptom improvement,[4],60 h
